# Results reported in US20160263109A1, “P13K INHIBITOR FOR TREATMENT OF RESPIRATORY DISEASE” (GLAXOSMITHKLINE INTELLECTUAL PROPERTY DEVELOPMENT LIMITED, priority 2013, published 2016).
# Where a name gives a salt, the structure may show the parent alone.
# Assays:
# [1] = tested on: lung gene expression; assay: Affymetrix GeneChip lung gene expression in S. Pneumoniae-infected mice; type: in vivo; conditions: lungs of S. Pneumoniae-infected mice at various timepoints after infection; genes with minimum 1.5 fold-change, p<0.05; n=6
# Description: (§1) Germ-free C57BL/6 male and female mice aged 10-12 weeks were intranasally administered with 0.2% Tween-80/saline vehicle or 0.2 mg/kg micronized 6-(1H-indol-4-yl)-4-(5-{[4-(1-methylethyl)-1-piperazinyl]methyl}-1,3-oxazol-2-yl)-1H-indazole hydrochloride in the same vehicle. Compound dosing was carried out twice daily for eleven days under anaesthesia using 3% isoflurane for induction and 2% isoflurane for maintenance. At the start of day two, and one hour after administering 6-(1H-indol-4-yl)-4-(5-{[4-(1-methylethyl)-1-piperazinyl]methyl}-1,3-oxazol-2-yl)-1H-indazole hydrochloride or vehicle, mice were anaesthetized with isoflurane as above and infected intranasally with 1×10^7 CFU of S. pneumoniae strain TIGR4. S. Pneumoniae was obtained and prepared as described previously (see, for example, Infect. Immun. December 2011; 79(12): 4965-4976) and given in an inoculum of 50 μl PBS per mouse. Mice were monitored three times daily and assessed using a defined mortality-endpoint, where mice displaying three or more of the limiting clinical signs stated in Home Office Project Licence PPL 70/7661 were culled.
# Each band corresponds to a single probe and intensity signifies fold change, as indicated in the legend.
# [2] = tested on: S. pneumoniae strain TIGR4; assay: Streptococcus pneumoniae infection in mice, survival by defined mortality-endpoint; type: in vivo; conditions: C57BL/6 mice, 0.2 mg/kg intranasal twice daily for eleven days, infected intranasally with 1×10^7 CFU S. pneumoniae TIGR4; n=60; Mantel-Cox **p<0.005
# Description: as §1
smiles,measurement,setting,value
"CC(C)N1CCN(Cc2cnc(-c3cc(-c4cccc5[nH]ccc45)cc4[nH]ncc34)o2)CC1 [6-(1H-indol-4-yl)-4-(5-{[4-(1-methylethyl)-1-piperazinyl]methyl}-1,3-oxazol-2-yl)-1H-indazole hydrochloride]",lung gene expression compared to vehicle controls,[1],altered lung gene expression
same,defined mortality-endpoint (percentage survival) compared to vehicle controls,[2],reduced a defined mortality-endpoint
